Test results reported in BindingDB's records for doi:10.1021/jm801354e (University of Illinois At Chicago, 2009).
Structures can show the parent of a compound that is named as a salt.

Key:
[1] = target: T1, 5-hydroxytryptamine receptor 2C (Homo sapiens, UniProt P28335); experiment: Agonist activity at human 5HT2C receptor expressed in HEK293 cells assessed as calcium flux by FLIPR assay
T1 sequence (P28335 whole entry): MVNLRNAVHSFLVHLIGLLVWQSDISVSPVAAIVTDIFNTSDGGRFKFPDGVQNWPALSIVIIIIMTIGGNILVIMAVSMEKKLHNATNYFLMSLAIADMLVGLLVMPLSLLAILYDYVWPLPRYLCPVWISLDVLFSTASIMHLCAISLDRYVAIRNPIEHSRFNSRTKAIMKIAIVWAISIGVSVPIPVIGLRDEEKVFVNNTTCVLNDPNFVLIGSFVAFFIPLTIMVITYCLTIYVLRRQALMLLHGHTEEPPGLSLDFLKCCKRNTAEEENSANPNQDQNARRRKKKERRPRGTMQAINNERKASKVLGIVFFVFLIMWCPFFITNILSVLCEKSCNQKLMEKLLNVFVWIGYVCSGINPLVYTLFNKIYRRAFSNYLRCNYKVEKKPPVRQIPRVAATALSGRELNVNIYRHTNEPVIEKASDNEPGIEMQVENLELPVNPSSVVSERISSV

[2] = target: T2, 5-hydroxytryptamine receptor 2A (Homo sapiens, UniProt P28223); experiment: Agonist activity at human 5HT2A receptor expressed in HEK293 cells assessed as calcium flux by FLIPR assay
T2 sequence (P28223 whole entry): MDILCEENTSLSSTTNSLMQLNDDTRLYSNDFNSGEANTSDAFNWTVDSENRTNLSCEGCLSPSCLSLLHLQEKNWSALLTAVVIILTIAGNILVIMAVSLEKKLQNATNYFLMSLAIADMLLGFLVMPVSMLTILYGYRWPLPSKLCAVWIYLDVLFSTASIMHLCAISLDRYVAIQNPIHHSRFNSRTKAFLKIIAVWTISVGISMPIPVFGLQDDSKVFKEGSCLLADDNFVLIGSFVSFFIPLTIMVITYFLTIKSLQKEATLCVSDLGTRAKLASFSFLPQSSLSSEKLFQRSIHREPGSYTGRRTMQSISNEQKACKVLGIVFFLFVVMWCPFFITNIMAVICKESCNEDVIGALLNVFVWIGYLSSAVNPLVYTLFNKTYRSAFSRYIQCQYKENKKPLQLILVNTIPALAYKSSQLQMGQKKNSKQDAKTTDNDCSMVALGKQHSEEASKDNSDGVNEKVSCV

[3] = target: T3, 5-hydroxytryptamine receptor 2B (Homo sapiens, UniProt P41595); experiment: Agonist activity at human 5HT2B receptor expressed in HEK293 cells assessed as calcium flux by FLIPR assay
T3 sequence (P41595 whole entry): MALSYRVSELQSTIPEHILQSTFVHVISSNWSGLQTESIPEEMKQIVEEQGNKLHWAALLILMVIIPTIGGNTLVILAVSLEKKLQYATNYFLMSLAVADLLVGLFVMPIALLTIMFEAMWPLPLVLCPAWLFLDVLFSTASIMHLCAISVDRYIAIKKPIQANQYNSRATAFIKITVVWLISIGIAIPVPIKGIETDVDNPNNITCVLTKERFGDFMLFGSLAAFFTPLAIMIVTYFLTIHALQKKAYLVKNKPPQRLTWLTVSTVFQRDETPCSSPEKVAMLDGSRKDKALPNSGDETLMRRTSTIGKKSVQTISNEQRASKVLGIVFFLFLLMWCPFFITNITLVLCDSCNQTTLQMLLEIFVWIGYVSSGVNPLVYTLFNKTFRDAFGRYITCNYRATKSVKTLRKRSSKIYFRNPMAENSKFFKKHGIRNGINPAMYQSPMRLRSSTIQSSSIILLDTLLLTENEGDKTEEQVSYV

[4] = target: T1, 5-hydroxytryptamine receptor 2C; experiment: Displacement of [3H]mesulergine from 5HT2C receptor
[5] = target: T2, 5-hydroxytryptamine receptor 2A; experiment: Displacement of [3H]ketanserin from human 5HT2A receptor
[6] = target: Sodium-dependent serotonin transporter (Homo sapiens, UniProt P31645); experiment: Displacement of [3H]citalopram from SERT
Chain of Sodium-dependent serotonin transporter (P31645 whole entry): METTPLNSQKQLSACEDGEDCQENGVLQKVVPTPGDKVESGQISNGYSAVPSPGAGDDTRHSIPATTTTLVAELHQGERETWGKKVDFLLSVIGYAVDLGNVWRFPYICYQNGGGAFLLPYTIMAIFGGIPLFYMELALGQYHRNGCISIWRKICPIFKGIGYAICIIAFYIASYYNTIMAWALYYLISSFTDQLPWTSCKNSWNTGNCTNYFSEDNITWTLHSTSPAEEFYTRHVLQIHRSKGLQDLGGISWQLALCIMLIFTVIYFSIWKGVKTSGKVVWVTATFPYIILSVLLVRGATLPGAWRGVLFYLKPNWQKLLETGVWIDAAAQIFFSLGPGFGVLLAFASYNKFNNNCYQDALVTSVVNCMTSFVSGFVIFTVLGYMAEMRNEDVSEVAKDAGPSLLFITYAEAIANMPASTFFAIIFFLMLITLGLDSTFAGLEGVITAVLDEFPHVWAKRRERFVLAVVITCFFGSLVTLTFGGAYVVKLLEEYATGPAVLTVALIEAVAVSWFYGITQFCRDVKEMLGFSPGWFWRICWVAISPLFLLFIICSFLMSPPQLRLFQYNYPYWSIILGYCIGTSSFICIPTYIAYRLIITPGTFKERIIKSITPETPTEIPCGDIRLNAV

[7] = target: Sodium-dependent dopamine transporter (Homo sapiens, UniProt Q01959); experiment: Displacement of [3H]WIN-35428 from DAT
Chain of Sodium-dependent dopamine transporter (Q01959 whole entry): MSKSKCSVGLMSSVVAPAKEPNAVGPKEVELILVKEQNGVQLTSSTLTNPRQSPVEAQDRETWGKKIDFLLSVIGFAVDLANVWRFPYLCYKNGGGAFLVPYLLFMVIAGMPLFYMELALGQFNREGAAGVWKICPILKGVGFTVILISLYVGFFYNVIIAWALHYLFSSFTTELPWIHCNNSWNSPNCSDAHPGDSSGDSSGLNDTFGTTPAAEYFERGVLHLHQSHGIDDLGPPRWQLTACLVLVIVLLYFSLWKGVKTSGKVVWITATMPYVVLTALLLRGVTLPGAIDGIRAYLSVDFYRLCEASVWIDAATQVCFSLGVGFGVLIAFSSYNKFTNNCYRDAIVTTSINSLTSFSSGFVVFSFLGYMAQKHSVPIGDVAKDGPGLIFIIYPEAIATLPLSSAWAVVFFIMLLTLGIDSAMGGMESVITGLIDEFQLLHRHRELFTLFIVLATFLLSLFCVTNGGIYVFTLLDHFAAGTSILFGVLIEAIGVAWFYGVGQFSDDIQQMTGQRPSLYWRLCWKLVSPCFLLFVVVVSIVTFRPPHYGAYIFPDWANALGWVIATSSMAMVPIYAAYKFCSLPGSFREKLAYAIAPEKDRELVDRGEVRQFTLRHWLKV

[8] = target: T3, 5-hydroxytryptamine receptor 2B; experiment: Displacement of [3H]LSD from human 5HT2B receptor
[9] = target: Sodium-dependent noradrenaline transporter (Homo sapiens, UniProt P23975); experiment: Displacement of [3H]nisoxetine from NET
Chain of Sodium-dependent noradrenaline transporter (P23975 whole entry): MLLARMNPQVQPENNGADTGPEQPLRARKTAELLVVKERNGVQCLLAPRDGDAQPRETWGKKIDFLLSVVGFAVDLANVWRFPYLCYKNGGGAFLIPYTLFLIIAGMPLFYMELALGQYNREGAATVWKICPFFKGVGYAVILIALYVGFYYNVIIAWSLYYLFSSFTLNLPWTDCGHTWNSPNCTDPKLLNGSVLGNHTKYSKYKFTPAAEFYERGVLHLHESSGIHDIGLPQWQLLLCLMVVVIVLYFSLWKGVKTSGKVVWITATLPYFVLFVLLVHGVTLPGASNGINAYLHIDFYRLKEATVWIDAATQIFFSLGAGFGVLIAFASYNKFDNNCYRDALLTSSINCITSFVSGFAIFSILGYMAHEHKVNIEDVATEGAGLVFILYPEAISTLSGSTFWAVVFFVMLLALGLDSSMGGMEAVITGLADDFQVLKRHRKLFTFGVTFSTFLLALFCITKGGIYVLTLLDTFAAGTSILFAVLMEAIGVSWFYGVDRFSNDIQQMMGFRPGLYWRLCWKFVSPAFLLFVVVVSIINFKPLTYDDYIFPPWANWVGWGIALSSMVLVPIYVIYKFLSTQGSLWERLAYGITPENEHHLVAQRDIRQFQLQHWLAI

SMILES	EC50 [1] [nM]	EC50 [2] [nM]	EC50 [3] [nM]	also measured
NC[C@H]1C[C@@H]1c1ccccc1Cl (relative stereo) [trans-[2-(2-Chlorophenyl)cyclopropyl]methylamine Hydrochloride]	5.1	168	32	–
NC[C@H]1C[C@@H]1c1ccccc1F [trans-[2-(2-Fluorophenyl)cyclopropyl]methylamine Hydrochloride]	29	–	69	–
NC[C@H]1C[C@@H]1c1ccccc1O (relative stereo) [trans-[2-(2-Hydroxyphenyl)cyclopropyl]methylamine Hydrochloride]	161	513	492	–
Cc1ccc([C@H]2C[C@@H]2CN)c(Br)c1 (relative stereo) [trans-[2-(2-Bromo-4-methylphenyl)cyclopropyl]methylamine Hydrochloride]	97	465	116	–
NC[C@H]1C[C@@H]1c1cccc(F)c1F (relative stereo) [trans-[2-(2,3-Difluorophenyl)cyclopropyl]methylamine Hydrochloride]	99	> 5000	366	–
Cc1ccccc1[C@H]1C[C@@H]1CN (relative stereo) [trans-[2-(2-Methylphenyl)cyclopropyl]methylamine Hydrochloride]	23	1610	53	–
NC[C@H]1C[C@@H]1c1cccc(Cl)c1Cl (relative stereo) [trans-[2-(2,3-Dichlorophenyl)cyclopropyl]methylamine Hydrochloride]	11	349	14	–
Cc1cccc([C@H]2C[C@@H]2CN)c1C (relative stereo) [trans-[2-(2,3-Dimethylphenyl)cyclopropyl]methylamine Hydrochloride]	7	360	8.4	–
NC[C@H]1C[C@H]1c1ccccc1 (racemic) [(+/-)-Cis-(2-Phenylcyclopropyl)methylamineHydrochloride]	3020	–	> 10000	–
NC[C@H]1C[C@@H]1c1ccc(F)cc1F [trans-[2-(2,4-Difluorophenyl)cyclopropyl]methylamine Hydrochloride]	42	547	415	–
NC[C@H]1C[C@@H]1c1ccc(Cl)cc1Cl (relative stereo) [trans-[2-(2,4-Dichlorophenyl)cyclopropyl]methylamine Hydrochloride]	18	51	83	–
c1ccc(CNC[C@H]2C[C@@H]2c2ccccc2)cc1 (relative stereo) [trans-N-Benzyl-(2-phenylcyclopropylmethyl)amine]	5700	–	–	–
NC[C@H]1C[C@@H]1c1ccc(F)cc1Cl (relative stereo) [trans-[2-(2-Chloro-4-fluorophenyl)cyclopropyl]methylamine Hydrochloride]	3	91	22	Ki [4]: 203 nM; Ki [5]: 254 nM; Ki [6]: 1040 nM; Ki [7]: > 10000 nM; Ki [8]: 16 nM; Ki [9]: > 10000 nM
Cc1cccc(Cl)c1[C@H]1C[C@@H]1CN (relative stereo) [trans-[2-(2-Chloro-6-methylphenyl)cyclopropyl]methylamine Hydrochloride]	3.5	726	7	–
NC[C@H]1C[C@@H]1c1c(F)cccc1F (relative stereo) [trans-[2-(2,6-Difluorophenyl)cyclopropyl]methylamine Hydrochloride]	87	> 1000	3340	–
NC[C@H]1C[C@@H]1c1ccc2ccccc2c1 (relative stereo) [trans-(2-Naphthalen-2-ylcyclopropyl)methylamine Hydrochloride]	2900	–	510	–
COc1ccccc1[C@H]1C[C@@H]1CN (relative stereo) [trans-[2-(2-Methoxyphenyl)cyclopropyl]methylamine Hydrochloride]	26	2170	199	–
CNC[C@H]1C[C@@H]1c1ccccc1 (relative stereo) [trans-N-Methyl-(2-phenylcyclopropylmethyl)amine]	634	–	> 10000	–

More lines, main results first:

EC50 [1] [nM]	EC50 [2] [nM]	EC50 [3] [nM]	SMILES	also measured
9	578	28	NC[C@H]1C[C@@H]1c1ccc(F)c(F)c1 (relative stereo) [trans-[2-(3,4-Difluorophenyl)cyclopropyl]methylamine Hydrochloride]	–
49	–	350	NC[C@H]1C[C@@H]1c1ccccc1C(F)(F)F (relative stereo) [trans-[2-(2-Trifluoromethylphenyl)cyclopropyl]methylamine Hydrochloride]	–
135	1930	37	Cc1ccc([C@H]2C[C@@H]2CN)cc1 (relative stereo) [trans-[2-(4-Methylphenyl)cyclopropyl]methylamine Hydrochloride]	–
16	613	75	COc1cccc([C@H]2C[C@@H]2CN)c1 (relative stereo) [trans-[2-(3-Methoxyphenyl)cyclopropyl]methylamine Hydrochloride]	–
10	1890	59	NC[C@H]1C[C@@H]1c1cccc(Cl)c1 (relative stereo) [trans-[2-(3-Chlorophenyl)cyclopropyl]methylamine Hydrochloride]	–
128	774	459	NC[C@H]1C[C@@H]1c1ccc(Cl)cc1F (relative stereo) [trans-[2-(4-Chloro-2-fluorophenyl)cyclopropyl]methylamine Hydrochloride]	–
6	235	4.9	Cc1cc([C@H]2C[C@@H]2CN)ccc1F (relative stereo) [trans-[2-(4-Fluoro-3-methylphenyl)cyclopropyl]methylamine Hydrochloride]	–
4.8	585	65	Cc1cccc([C@H]2C[C@@H]2CN)c1 (relative stereo) [trans-[2-(3-Methylphenyl)cyclopropyl]methylamine Hydrochloride]	Ki [4]: 268 nM; Ki [5]: 1850 nM; Ki [6]: 5440 nM; Ki [7]: 5400 nM; Ki [8]: 85 nM; Ki [9]: > 10000 nM
902	–	–	COc1ccc([C@H]2C[C@@H]2CN)cc1 (relative stereo) [trans-[2-(4-Methoxyphenyl)cyclopropyl]methylamine Hydrochloride]	–
3.3	247	5.5	NC[C@H]1C[C@@H]1c1cccc(O)c1 (relative stereo) [trans-[2-(3-Hydroxyphenyl)cyclopropyl]methylamine Hydrochloride]	–
35	2390	12	Cc1ccc([C@H]2C[C@@H]2CN)cc1C (relative stereo) [trans-[2-(3,4-Dimethylphenyl)cyclopropyl]methylamine Hydrochloride]	–
779	–	> 1000	NC[C@H]1C[C@@H]1c1ccc(C(F)(F)F)cc1 (relative stereo) [trans-[2-(4-Trifluoromethylphenyl)cyclopropyl]methylamine Hydrochloride]	–
138	> 1000	2740	NC[C@H]1C[C@@H]1c1ccc(Br)cc1 (relative stereo) [trans-[2-(4-Bromophenyl)cyclopropyl]methylamine Hydrochloride]	–
76	4480	404	NC[C@H]1C[C@@H]1c1ccc(Cl)cc1 (relative stereo) [trans-[2-(4-Chlorophenyl)cyclopropyl]methylamine Hydrochloride]	–
14	1680	141	NC[C@H]1C[C@@H]1c1cccc(Br)c1 (relative stereo) [trans-[2-(3-Bromophenyl)cyclopropyl]methylamine Hydrochloride]	–
3.3	437	3.6	NC[C@H]1C[C@@H]1c1cccc(F)c1 (relative stereo) [trans-[2-(3-Fluorophenyl)cyclopropyl]methylamine Hydrochloride]	–
13	330	116	Cc1ccc(Cl)c([C@H]2C[C@@H]2CN)c1F [trans-[2-(6-Chloro-2-fluoro-3-methylphenyl)cyclopropyl]methylamineHydrochloride]	–
30	1480	77	NC[C@H]1C[C@@H]1c1cccc(C(F)(F)F)c1 (relative stereo) [trans-[2-(3-Trifluoromethylphenyl)cyclopropyl]methylamine Hydrochloride]	–
